Drawing on patent US20260184693A1, “INHIBITORS OF SOLUTE CARRIER FAMILY 6A MEMBER 19 (SLC6A19) AND METHODS OF USE THEREOF” (Maze Therapeutics, Inc., priority 2022, published 2026), this text covers IC50 for 24 compounds.

The experiment has as its target T1, human SLC6A19 (Homo sapiens, UniProt Q695T7).
T1 construct: expressed in transfected cells
T1 sequence (Q695T7 1-634): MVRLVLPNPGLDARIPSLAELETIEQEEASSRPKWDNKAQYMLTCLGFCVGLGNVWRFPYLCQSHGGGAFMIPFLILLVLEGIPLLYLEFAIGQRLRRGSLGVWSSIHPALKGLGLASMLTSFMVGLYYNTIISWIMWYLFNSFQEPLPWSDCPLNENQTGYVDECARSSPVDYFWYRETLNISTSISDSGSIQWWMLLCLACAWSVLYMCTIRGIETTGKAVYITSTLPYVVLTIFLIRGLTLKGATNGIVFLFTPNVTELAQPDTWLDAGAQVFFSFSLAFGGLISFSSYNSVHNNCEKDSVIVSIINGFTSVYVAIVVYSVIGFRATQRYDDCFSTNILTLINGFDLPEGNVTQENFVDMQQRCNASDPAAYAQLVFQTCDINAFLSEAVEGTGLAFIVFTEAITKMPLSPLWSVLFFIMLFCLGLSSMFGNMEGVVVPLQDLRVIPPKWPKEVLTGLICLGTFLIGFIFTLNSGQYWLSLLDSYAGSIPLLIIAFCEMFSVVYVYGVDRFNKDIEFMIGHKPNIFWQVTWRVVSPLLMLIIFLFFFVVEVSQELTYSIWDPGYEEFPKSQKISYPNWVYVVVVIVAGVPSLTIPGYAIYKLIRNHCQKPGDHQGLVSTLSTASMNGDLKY
T1 sequence (Q9HBJ8 15-222 partner): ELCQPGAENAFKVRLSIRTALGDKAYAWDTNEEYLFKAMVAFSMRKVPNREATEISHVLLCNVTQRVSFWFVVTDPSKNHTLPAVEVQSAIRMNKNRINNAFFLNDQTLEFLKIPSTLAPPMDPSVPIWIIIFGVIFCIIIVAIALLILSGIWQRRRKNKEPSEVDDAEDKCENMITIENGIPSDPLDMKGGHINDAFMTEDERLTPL
Put plainly: Example B2: 13C6,15N-isoleucine uptake, RapidFire mass spectrometry, in CHO cells with doxycycline-inducible expression of human SLC6A19 and TMEM27. In kind it is cell-based. The note with it: read-out: SLC6A19_RapidFire Uptake Assay IC50. How it is done:
Assay ready vials of CHO cells with doxycycline inducible expression of human SLC6A19 and TMEM27 were thawed, plated in T175 flasks containing DMEM/F12 media, 10% FBS, 100 Penicillin-Streptomycin, 1× UltraGlutamate, 1 mM Sodium Pyruvate, Sodium Bicarbonate (7.5 mL of 7.5% solution in 500 mL media final), […] Blasticidin, 150 µg/mL Hygromycin B Gold, and 500 µg/mL G418, and incubated (humidified, 37° C. with […]) for 48 hours. Media was then removed, flasks were washed with 20 mL of DPBS, and 5 mL of TryμLE™ Express was added to each flask to initiate cell dissociation. After 5 minutes, 10 mL of cell culture media was added to each flask and mixed. The cell suspension was collected and centrifuged for 5 minutes at 200×g. The supernatant was removed, and the pellet was resuspended in 10 mL of cell culture media. Resuspended cells were counted using a Vi-Cell. 30 μL/well (20,000 cells/well) of cell suspension was added to Poly-D-Lysine 384-well black/clear plates. Plates were incubated (humidified, 37° C. with 5% CO2) for 24 hours. To induce expression of human SLC6A19 and TMEM27, 10 μL of assay culture media containing 4 μg/mL doxycycline was added to each well. Assay plates were then incubated (humidified, 37° C. with 5% CO2) overnight. After incubation, the media was removed, and wells were washed 3 times with 40 μL of warmed DPBS. […] All compounds were plated in a duplicate 10-point dilution series that consisted of 2-fold dilutions. The plates were incubated (humidified, 37° C. with 5% CO2) with compound for 20 minutes. Afterwards, 20 μL/well of 2 mM 13C6,15N-1-isoleucine was added to each well and plates were incubated again (humidified, 37° C. with 5% CO2) for another 20 minutes. Assay buffer was then removed, and plates were washed. 70 μL/well of stop solution (75% acetonitrile, 25% HPLC grade water, 250 nM 1-leucine-1-13 C (RapidFire standard)) was added to each well. The plates were sealed and then placed in a −20° C. freezer for 20 minutes. The plates were thawed at room temperature for 20 minutes and then centrifuge for 20 minutes at 3000 rpm. Using an ABSciex API4000 mass spectrometer, processed samples were loaded onto the graphitic carbon SPE-column. The time for aspiration, load/wash, elution and re-equilibration time was 600, 1500, 3000 and 500 milliseconds, respectively. Peak areas were calculated using RapidFire Integrator software.
As for `CN(C(=O)NCc1cc2cc(Cl)ccc2[nH]1)[C@@H]1CCCN(C(=O)C2COC2)C1` [Compound 1, (R)-3-((5-chloro-1H-indol-2-yl)methyl)-1-methyl-1-(1-(oxetane-3-carbonyl)piperidin-3-yl)urea], the IC50 (as a rule, the concentration needed to halve the response being measured) was determined as 252 nM.
Consider `CN(C(=O)NCc1cc2cc(Cl)ccc2[nH]1)[C@@H]1CCCN(C(=O)CN2CCOC2=O)C1` [Compound 2, (R)-3-((5-chloro-1H-indol-2-yl)methyl)-1-methyl-1-(1-(2-(2-oxooxazolidin-3-yl)acetyl)piperidin-3-yl)urea], for which the IC50 was 3520 nM.
On to `CN(C(=O)NCc1cc2cc(Cl)ccc2[nH]1)[C@@H]1CCCN(C(=O)CC#N)C1` [Compound 3, (R)-3-((5-chloro-1H-indol-2-yl)methyl)-1-(1-(2-cyanoacetyl)piperidin-3-yl)-1-methylurea], for which the IC50 is 359 nM.
The value for `CN(C(=O)NCc1cc2cc(Cl)ccc2[nH]1)[C@@H]1CCCN(C(=O)CO)C1` [Compound 4, (R)-3-((5-chloro-1H-indol-2-yl)methyl)-1-(1-(2-hydroxyacetyl)piperidin-3-yl)-1-methylurea] was 620 nM.
As for `CN(C(=O)NCc1cc2cc(Cl)ccc2[nH]1)[C@@H]1CCCN(C(=O)c2ccon2)C1` [Compound 5, (R)-3-((5-chloro-1H-indol-2-yl)methyl)-1-(1-(isoxazole-3-carbonyl)piperidin-3-yl)-1-methylurea], the IC50 stood at 578 nM.
The value for `CN(C(=O)NCc1cc2cc(Cl)ccc2[nH]1)[C@@H]1CCCN(C(=O)c2ccno2)C1` [Compound 6, (R)-3-((5-chloro-1H-indol-2-yl)methyl)-1-(1-(isoxazole-5-carbonyl)piperidin-3-yl)-1-methylurea] was 198 nM; that for `CN(C(=O)NCc1cc2cc(Cl)ccc2[nH]1)[C@@H]1CCCN(C(=O)c2cocn2)C1` [Compound 7, (R)-3-((5-chloro-1H-indol-2-yl)methyl)-1-methyl-1-(1-(oxazole-4-carbonyl)piperidin-3-yl)urea] was 685 nM; that for `CN(C(=O)NCc1cc2cc(Cl)ccc2[nH]1)[C@@H]1CCCN(C(=O)CC(F)(F)F)C1` [Compound 8, (R)-3-((5-chloro-1H-indol-2-yl)methyl)-1-methyl-1-(1-(3,3,3-trifluoropropanoyl)piperidin-3-yl)urea] was 491 nM.
`CN(C(=O)NCc1cc2cc(Cl)ccc2[nH]1)[C@@H]1CCCN(C(=O)c2nccs2)C1` [Compound 9, (R)-3-((5-chloro-1H-indol-2-yl)methyl)-1-methyl-1-(1-(thiazole-2-carbonyl)piperidin-3-yl)urea]: the IC50 amounted to 5370 nM.
Regarding `CCC(=O)N1CCC[C@@H](N(C)C(=O)NCc2cc3cc(Cl)ccc3[nH]2)C1` [Compound 10, (R)-3-((5-chloro-1H-indol-2-yl)methyl)-1-methyl-1-(1-propionylpiperidin-3-yl)urea], the IC50 amounted to 125 nM.
Regarding `CN(C(=O)NCc1cc2cc(Cl)ccc2[nH]1)[C@@H]1CCCN(C(=O)c2cn[nH]c2)C1` [Compound 11, (R)-1-(1-(1H-pyrazole-4-carbonyl)piperidin-3-yl)-3-((5-chloro-1H-indol-2-yl)methyl)-1-methylurea], the IC50 came to 743 nM.
As to `CC(O)C(=O)N1CCC[C@@H](N(C)C(=O)NCc2cc3cc(Cl)ccc3[nH]2)C1` (stereo partly drawn) [Compound 12, 3-((5-chloro-1H-indol-2-yl)methyl)-1-((3R)-1-(2-hydroxypropanoyl)piperidin-3-yl)-1-methylurea], the half-inhibitory concentration (IC50) worked out at 354 nM.
For the compound `CN(C(=O)NCc1cc2cc(Cl)ccc2[nH]1)[C@@H]1CCCN(C(=O)c2c[nH]cn2)C1` [Compound 13, (R)-1-(1-(1H-imidazole-4-carbonyl)piperidin-3-yl)-3-((5-chloro-1H-indol-2-yl)methyl)-1-methylurea], the IC50 came out at 1610 nM.
The value for `CN(C(=O)NCc1cc2cc(Cl)ccc2[nH]1)[C@@H]1CCCN(C(=O)[C@H]2C[C@@H]2F)C1` [Compound 14, 3-((5-chloro-1H-indol-2-yl)methyl)-1-((R)-1-((1R,2S)-2-fluorocyclopropane-1-carbonyl)piperidin-3-yl)-1-methylurea] was 467 nM; that for `COCC(=O)N1CCC[C@@H](N(C)C(=O)NCc2cc3cc(Cl)ccc3[nH]2)C1` [Compound 15, (R)-3-((5-chloro-1H-indol-2-yl)methyl)-1-(1-(2-methoxyacetyl)piperidin-3-yl)-1-methylurea] was 539 nM; that for `CN(C(=O)NCc1cc2cc(Cl)ccc2[nH]1)[C@@H]1CCCN(C(=O)C2(F)CC2)C1` [Compound 16, (R)-3-((5-chloro-1H-indol-2-yl)methyl)-1-(1-(1-fluorocyclopropane-1-carbonyl)piperidin-3-yl)-1-methylurea] was > 4290 nM.
The value for `CN(C(=O)NCc1cc2cc(Cl)ccc2[nH]1)[C@@H]1CCCN(C(=O)C2CC2)C1` [Compound 17, (R)-3-((5-chloro-1H-indol-2-yl)methyl)-1-(1-(cyclopropanecarbonyl)piperidin-3-yl)-1-methylurea] was 151 nM; that for `CN(C(=O)NCc1cc2cc(Cl)ccc2[nH]1)[C@@H]1CCCN(C(=O)c2ncc[nH]2)C1` [Compound 18, (R)-1-(1-(1H-imidazole-2-carbonyl)piperidin-3-yl)-3-((5-chloro-1H-indol-2-yl)methyl)-1-methylurea] was 2250 nM; that for `CN(C(=O)NCc1cc2cc(Cl)ccc2[nH]1)[C@@H]1CCCN(C(=O)C2CC2(F)F)C1` (stereo partly drawn) [Compound 19, 3-((5-chloro-1H-indol-2-yl)methyl)-1-((3R)-1-(2,2-difluorocyclopropane-1-carbonyl)piperidin-3-yl)-1-methylurea] was 484 nM.
`CN(C(=O)NCc1cc2cc(Cl)ccc2[nH]1)[C@@H]1CCCN(C(=O)c2cncnc2)C1` [Compound 20, (R)-3-((5-chloro-1H-indol-2-yl)methyl)-1-methyl-1-(1-(pyrimidine-5-carbonyl)piperidin-3-yl)urea]: the IC50 stood at 8960 nM.
For the compound `CN(C(=O)NCc1cc2cc(Cl)ccc2[nH]1)[C@@H]1CCCN(C(=O)c2ncccn2)C1` [Compound 22, (R)-3-((5-chloro-1H-indol-2-yl)methyl)-1-methyl-1-(1-(pyrimidine-2-carbonyl)piperidin-3-yl)urea], the IC50 stood at 4370 nM.
For the compound `CN(C(=O)NCc1cc2cc(Cl)ccc2[nH]1)[C@@H]1CCCN(C(=O)c2ccnnc2)C1` [Compound 23, (R)-3-((5-chloro-1H-indol-2-yl)methyl)-1-methyl-1-(1-(pyridazine-4-carbonyl)piperidin-3-yl)urea], the IC50 was found to be 5840 nM.
As to `CN(C(=O)NCc1cc2cc(Cl)ccc2[nH]1)[C@@H]1CCCN(C(=O)c2ncc(F)cn2)C1` [Compound 24, (R)-3-((5-chloro-1H-indol-2-yl)methyl)-1-(1-(5-fluoropyrimidine-2-carbonyl)piperidin-3-yl)-1-methylurea], the IC50 stood at 4200 nM.
As for `Cc1n[nH]nc1C(=O)N1CCC[C@@H](N(C)C(=O)NCc2cc3cc(Cl)ccc3[nH]2)C1` [Compound 25, (R)-3-((5-chloro-1H-indol-2-yl)methyl)-1-methyl-1-(1-(5-methyl-2H-1,2,3-triazole-4-carbonyl)piperidin-3-yl)urea], the IC50 came to 11600 nM.
